From publication PMC4907692, “Engineering vanilloid-sensitivity into the rat TRPV2 channel” (eLife, 2016)

What was measured:
Format in all cases: cell-based
TRPV2 F472S/L507M = target: T1, TRPV2 F472S/L507M (Rattus norvegicus, UniProt Q9WUD2, F472S/L507M); assay: Two-electrode voltage-clamp in Xenopus oocytes, TRPV2 F472S/L507M; settings: 100 nM RTx
T1 construct: expressed in transfected cells; host or cells: Xenopus oocytes (cRNA injection)
Source text: (§1) To further investigate the putative vanilloid binding pocket in TRPV1, we inspected the cryo-EM structure of TRPV1, looking for residues that are located nearby to the putative RTx density (Figure 1B; regions/residues highlighted in yellow) and that differ between TRPV1 and TRPV2 channels (Figure 3—figure supplement 1; regions highlighted in magenta). […] To quantify the contribution of each of these residues to TRPV1 channel activation by RTx under our experimental conditions, we mutated each to the corresponding residue in TRPV2. We then expressed each construct in oocytes and used the two electrode voltage-clamp technique to study activation by RTx and by the non-specific TRPV channel activator 2-APB. We recorded time courses for channel activation by each agonist while stepping the membrane potential from −60 to +60 mV every 3 s from a holding potential of 0 mV using an external recording solution containing 100 mM KCl (internal K^+ concentration in a healthy oocyte is 100 mM) (Figure 3A, left). We also recorded current-voltage (I-V) relations by stepping over a wider range of voltages in the absence and presence of activators, or in the presence of ruthenium red (RR), a non-specific inhibitor of TRP channels (Figure 3A, right). […]

[1] = target: T2, TRPV2 triple mutant that retained F472 (Rattus norvegicus, UniProt Q9WUD2, L507M/L510T/Q530E); assay: Two-electrode voltage-clamp in Xenopus oocytes, TRPV2 triple mutant retaining F472; settings: 100 nM RTx, +60 mV, normalized to 4 mM 2-APB
T2 construct: expressed in transfected cells; host or cells: Xenopus oocytes (cRNA injection)
T2 sequence (Q9WUD2 whole entry L507M/L510T/Q530E): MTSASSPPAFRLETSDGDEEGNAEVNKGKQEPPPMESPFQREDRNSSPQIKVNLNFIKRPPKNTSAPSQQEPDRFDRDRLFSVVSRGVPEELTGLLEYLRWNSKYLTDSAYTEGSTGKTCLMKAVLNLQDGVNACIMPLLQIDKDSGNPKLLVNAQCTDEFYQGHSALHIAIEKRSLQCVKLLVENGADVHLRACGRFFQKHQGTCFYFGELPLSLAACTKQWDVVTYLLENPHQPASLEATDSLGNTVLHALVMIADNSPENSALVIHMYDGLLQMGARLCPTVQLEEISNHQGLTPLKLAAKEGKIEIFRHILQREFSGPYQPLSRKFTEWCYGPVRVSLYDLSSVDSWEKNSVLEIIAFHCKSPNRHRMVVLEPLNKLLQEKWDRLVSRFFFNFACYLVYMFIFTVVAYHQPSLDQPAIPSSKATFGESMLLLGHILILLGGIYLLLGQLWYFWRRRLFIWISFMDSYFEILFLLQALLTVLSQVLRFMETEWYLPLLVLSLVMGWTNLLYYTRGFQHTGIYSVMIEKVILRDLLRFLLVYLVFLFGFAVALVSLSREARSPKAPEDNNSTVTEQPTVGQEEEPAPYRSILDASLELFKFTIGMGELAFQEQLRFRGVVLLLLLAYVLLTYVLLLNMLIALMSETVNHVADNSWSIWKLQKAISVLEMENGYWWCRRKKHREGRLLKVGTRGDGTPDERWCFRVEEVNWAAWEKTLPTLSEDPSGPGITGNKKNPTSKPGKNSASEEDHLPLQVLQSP
Source text: as §1

TRPV2 QM = target: T3, TRPV2 QM (Rattus norvegicus, UniProt Q9WUD2, F472S/L507M/L510T/Q530E); assay: Single channel inside-out patch recording of TRPV2 QM in HEK293 cells; settings: 100 nM RTx, patch containing a single channel, recording of approximately 8 min
T3 construct: expressed in transfected cells; host or cells: Xenopus oocytes (cRNA injection)
T3 sequence (Q9WUD2 1-761 F472S/L507M/L510T/Q530E): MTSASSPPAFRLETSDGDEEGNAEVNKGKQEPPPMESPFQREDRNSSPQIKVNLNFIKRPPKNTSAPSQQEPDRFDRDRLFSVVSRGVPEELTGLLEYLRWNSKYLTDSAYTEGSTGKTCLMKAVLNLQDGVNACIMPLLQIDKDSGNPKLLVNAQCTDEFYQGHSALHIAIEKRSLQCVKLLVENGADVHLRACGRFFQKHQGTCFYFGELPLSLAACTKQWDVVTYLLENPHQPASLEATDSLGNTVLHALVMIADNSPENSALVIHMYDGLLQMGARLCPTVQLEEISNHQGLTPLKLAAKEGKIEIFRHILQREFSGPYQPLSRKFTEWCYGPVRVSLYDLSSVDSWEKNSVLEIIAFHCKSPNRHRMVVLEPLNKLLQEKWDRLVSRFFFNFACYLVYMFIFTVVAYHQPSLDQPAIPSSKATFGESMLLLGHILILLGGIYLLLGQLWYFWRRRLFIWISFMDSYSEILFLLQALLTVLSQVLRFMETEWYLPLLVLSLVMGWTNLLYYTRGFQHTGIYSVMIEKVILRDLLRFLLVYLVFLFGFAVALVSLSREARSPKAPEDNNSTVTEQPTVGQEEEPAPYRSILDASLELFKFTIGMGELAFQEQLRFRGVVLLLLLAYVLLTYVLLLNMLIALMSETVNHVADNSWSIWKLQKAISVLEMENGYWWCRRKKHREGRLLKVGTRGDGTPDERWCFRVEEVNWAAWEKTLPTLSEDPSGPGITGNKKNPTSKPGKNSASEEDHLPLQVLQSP

T1 sequence (Q9WUD2 whole entry F472S/L507M): as the sequence (Q9WUD2 whole entry L507M/L510T/Q530E) above, with F472S, T510L, E530Q counted along it

In the case of C=C(C)[C@]12C[C@@H](C)[C@@]34O[C@](Cc5ccccc5)(O[C@@H]1[C@@H]3C=C(COC(=O)Cc1ccc(O)c(OC)c1)C[C@]1(O)C(=O)C(C)=C[C@@H]41)O2 [RTx, resiniferatoxin], the “channel activation by RTx” value (TRPV2 F472S/L507M) is reported as “sensitive to RTx”, the “channel activation by RTx” value [1] is reported as “insensitive to RTx” and the “open probability (Po)” value (TRPV2 QM) is reported as about 1.
